Data published in patent US9266881B2, “Triazolopyridinone PDE10 inhibitors” (Merck Sharp & Dohme Corp., priority 2011, dated 2016).
Where two headings read alike, the source gives them in different places.

Target: human PDE10A2 (Homo sapiens (Human), UniProt Q9Y233)
Test: PDE10 fluorescence polarization (IMAP FP) inhibition assay
Type: biochemical
Protocol: The activity of the compounds in accordance with the present invention as PDE10 inhibitors may be readily determined without undue experimentation using a fluorescence polarization (FP) methodology that is well known in the art (Huang, W., et al., J. Biomol Screen, 2002, 7: 215).
In a typical experiment the PDE10 inhibitory activity of the compounds of the present invention was determined in accordance with the following experimental method. PDE10A2 was amplified from human fetal brain cDNA (Clontech, Mountain View, Calif.) using a forward primer corresponding to nucleotides 56-77 of human PDE10A2 (Accession No. AF127480, Genbank Identifier 4894716), containing a Kozak consensus sequence, and a reverse primer corresponding to nucleotides 2406-2413 of human PDE10A2 (Accession No. AF127480, Genbank Identifier 4894716). Amplification with Easy-A polymerase (Stratagene, La Jolla, Calif.) was 95° C. for 2 minutes followed by thirty three cycles of 95° C. for 40 seconds, 55° C. for 30 seconds, and 72° C. for 2 minutes 48 seconds. Final extension was 72° C. for 7 minutes. The PCR product was TA cloned into pcDNA3.2-TOPO (Invitrogen, Carlsbad, Calif.) according to standard protocol. AD293 cells with 70-80% confluency were transiently transfected with human PDE10A2/pcDNA3.2-TOPO using Lipofectamine 2000 according to manufacturer specifications (Invitrogen, Carlsbad, Calif.). Cells were harvested 48 hours post-transfection and lysed by sonication (setting 3, 10×5 sec pulses) in a buffer containing 20 mM HEPES, 1 mM EDTA and protease inhibitor cocktail (Roche). Lysate was collected by centrifugation at 75,000×g for 20 minutes. Supernatant containing the cytoplasmic fraction was used for evaluation of PDE10A2 activity. The fluorescence polarization assay for cyclic nucleotide phosphodiesterases was performed using an IMAP® FP kit supplied by Molecular Devices, Sunnyvale, Calif. (product #R8139). IMAP® technology has been applied previously to phosphodiesterase assays (Huang, W., et al., J. Biomol Screen, 2002, 7: 215). Assays were performed at room temperature in 384-well microtiter plates with an incubation volume of 20.2 μl. Solutions of test compounds were prepared in DMSO and serially diluted with DMSO to yield 8 μL of each of 10 solutions differing by 3-fold in concentration, at 32 serial dilutions per plate. 100% inhibition is determined using a known PDE10 inhibitor, which can be any compound that is present at 5,000 times its Ki value in the assay described as follows, such as papaverine (see Siuciak, et al. Neuropharmacology (2006) 51:386-396; Becker, et al. Behav Brain Res (2008) 186(2):155-60; Threlfell, et al., J Pharmacol Exp Ther (2009) 328(3):785-795), 2-{4-[pyridin-4-yl-1-(2,2,2-trifluoroethyl)-1H-pyrazol-3-yl]phenoxymethyl}quinoline succinic acid or 2-[4-(1-methyl-4-pyridin-4-yl-1H-pyrazol-3-yl)-phenoxymethyl]quinoline succinic acid (see Schmidt, et al. J Pharmacol Exp Ther (2008) 325:681-690; Threlfell, et al., J Pharmacol Exp Ther (2009) 328(3): 785-795). 0% of inhibition is determined by using DMSO (1% final concentrations).
A Labcyte Echo 555 (Labcyte, Sunnyvale, Calif.) is used to dispense 200 nL from each well of the titration plate to the 384 well assay plate. A solution of enzyme (1/1600 dilution from aliquots; sufficient to produce 20% substrate conversion) and a separate solution of FAM-labeled cAMP PDE from Molecular Devices (product #R7506), at a final concentration of 50 nM are made in the assay buffer (10 mM Tris HCl, pH 7.2, 10 mM MgCl2, 0.05% NaN3 0.01% Tween-20, and 1 mM DTT). The enzyme and the substrate are then added to the assay plates in two consecutive additions of 10 μL, and then shaken to mix. The reaction is allowed to proceed at room temperature for 30 minutes. A binding solution is then made from the kit components, comprised of 80% Solution A, 20% Solution B and binding reagent at a volume of 1/600 the total binding solution. […]

[1] = human PDE10A2 lysate, IMAP FP, 50 nM FAM-labeled cAMP, room temperature, read-out: PDE10A Ki
[2] = human PDE10 enzyme, aforementioned assays, read-out: Ki for inhibiting the human PDE10 enzyme (range given)

Sequence of human PDE10A2 (Q9Y233 267-1055): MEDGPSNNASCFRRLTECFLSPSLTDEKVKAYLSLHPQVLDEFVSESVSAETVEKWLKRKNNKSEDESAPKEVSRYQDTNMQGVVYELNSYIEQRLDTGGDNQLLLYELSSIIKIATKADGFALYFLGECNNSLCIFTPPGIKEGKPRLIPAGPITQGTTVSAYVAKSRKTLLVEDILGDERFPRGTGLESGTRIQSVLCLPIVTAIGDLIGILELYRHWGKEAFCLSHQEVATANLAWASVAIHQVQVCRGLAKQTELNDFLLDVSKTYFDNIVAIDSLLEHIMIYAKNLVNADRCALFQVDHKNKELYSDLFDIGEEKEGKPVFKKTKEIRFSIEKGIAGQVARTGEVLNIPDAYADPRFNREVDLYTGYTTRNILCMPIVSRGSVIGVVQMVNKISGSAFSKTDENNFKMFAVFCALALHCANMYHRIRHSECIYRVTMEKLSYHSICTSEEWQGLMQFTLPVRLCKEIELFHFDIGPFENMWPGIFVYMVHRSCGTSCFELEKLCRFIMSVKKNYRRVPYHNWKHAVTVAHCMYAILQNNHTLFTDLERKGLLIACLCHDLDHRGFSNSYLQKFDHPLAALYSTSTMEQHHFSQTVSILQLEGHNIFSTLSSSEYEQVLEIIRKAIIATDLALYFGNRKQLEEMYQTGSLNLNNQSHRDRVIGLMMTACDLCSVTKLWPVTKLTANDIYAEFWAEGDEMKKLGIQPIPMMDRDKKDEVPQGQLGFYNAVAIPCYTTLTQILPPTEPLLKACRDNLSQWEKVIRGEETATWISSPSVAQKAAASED

| Compound | Ki [1] | Ki [2] |
| --- | --- | --- |
| O=c1n(CCc2ccc3ccccc3n2)nc2c(Br)cccn12 [Compound 1-6] | 37 nM | – |
| O=c1n(CCc2ccc3ccccc3n2)nc2cccc(Br)n12 [Compound 2-4, 5-bromo-2-(2-quinolin-2-ylethyl)[1,2,4]triazolo[4,3-a]pyridin-3(2H)-one] | 59 nM | – |
| O=c1n(CCc2ccc3ccccc3n2)nc2ccc(Br)cn12 [Compound 3-4, 6-bromo-2-(2-quinolin-2-ylethyl)[1,2,4]triazolo[4,3-a]pyridin-3(2H)-one] | 155 nM | – |
| O=c1n(CCc2ccc3ccccc3n2)nc2c(-c3ncco3)cccn12 [Compound 4-1, 8-(1,3-oxazol-2-yl)-2-(2-quinolin-2-ylethyl)[1,2,4]triazolo[4,3-a]pyridin-3(2H)-one] | 22 nM | – |
| O=C(Nc1cccnc1)c1cccc2nn(CCc3ccc4ccccc4n3)c(=O)n12 [Compound 8-2, 3-oxo-N-pyridin-3-yl-2-(2-quinolin-2-ylethyl)-2,3-dihydro[1,2,4]triazolo[4,3-a]pyridine-5-carboxamide] | 97 nM | – |
| O=c1n(CCc2ccc3ccccc3n2)nc2ccc(-c3cccnc3)cn12 [Compound 9-1, 6-pyridin-3-yl-2-(2-quinolin-2-ylethyl)[1,2,4]triazolo[4,3-a]pyridin-3(2H)-one] | 510 nM | – |
| O=c1n(CCc2ccc3ncccc3n2)nc2c(-c3ccncc3)cccn12 [Compound 10-4, 2-[2-(1,5-naphthyridin-2-yl)ethyl]-8-pyridin-4-yl[1,2,4]triazolo[4,3-a]pyridin-3(2H)-one] | 103 nM | – |
| O=c1n(C[C@@H]2C[C@H]2c2ccccn2)nc2cccc(N3CCOCC3)n12 [Compound 13-6, 5-morpholino-2-(((1R,2R)-2-(pyridin-2-yl)cyclopropyl)methyl)-[1,2,4]triazolo[4,3-a]pyridin-3(2H)-one] | 546 nM | – |
| Cc1cccn2c(=O)n(CCc3ccc4ccccc4n3)nc12 [Compound A-2, 8-methyl-2-(2-quinolin-2-ylethyl)[1,2,4]triazolo[4,3-a]pyridin-3(2H)-one] | 74 nM | – |
| Cc1ccc(-c2cccc3nn(CCc4ccc5ccccc5n4)c(=O)n23)cc1 [Compound A-3, 5-(4-methylphenyl)-2-(2-quinolin-2-ylethyl)[1,2,4]triazolo[4,3-a]pyridin-3(2H)-one] | 17 nM | – |
| O=c1n(CCc2ccc3ccccc3n2)nc2cccc(-c3cncs3)n12 [Compound A-4, 2-(2-quinolin-2-ylethyl)-5-(1,3-thiazol-5-yl)[1,2,4]triazolo[4,3-a]pyridin-3(2H)-one] | 23 nM | – |
| O=c1n(CCc2ccc3ccccc3n2)nc2cccc(-c3ccccc3)n12 [Compound A-5, 5-phenyl-2-(2-quinolin-2-ylethyl)[1,2,4]triazolo[4,3-a]pyridin-3(2H)-one] | 20 nM | – |
| O=c1n(CCc2ccc3ccccc3n2)nc2cccc(N3CCCCC3)n12 [Compound A-6, 5-piperidin-1-yl-2-(2-quinolin-2-ylethyl)[1,2,4]triazolo[4,3-a]pyridin-3(2H)-one] | 19 nM | – |
| O=c1n(CCc2ccc3ccccc3n2)nc2cccc(NCc3cccnc3)n12 [Compound A-7, 5-[(pyridin-3-ylmethyl)amino]-2-(2-quinolin-2-ylethyl)[1,2,4]triazolo[4,3-a]pyridin-3(2H)-one] | 12 nM | – |
| CC(C)(O)c1cccc2nn(CCc3ccc4ccccc4n3)c(=O)n12 [Compound A-8, 5-(1-hydroxy-1-methylethyl)-2-(2-quinolin-2-ylethyl)[1,2,4]triazolo[4,3-a]pyridin-3(2H)-one] | 72 nM | – |

These reach a lower Ki [1]. Values come first.

| Ki [1] | Ki [2] | Compound |
| --- | --- | --- |
| 4.4 nM | 0.1 to 10 nM | O=c1n(CCc2ccc3ccccc3n2)nc2cccc(-c3ccncc3)n12 [Compound 5-1, 5-pyridin-4-yl-2-(2-quinolin-2-ylethyl)[1,2,4]triazolo[4,3-a]pyridin-3(2H)-one] |
| 2.5 nM | 0.1 to 10 nM | O=c1n(CCc2ccc3ccccc3n2)nc2cccc(N3CCOCC3)n12 [Compound 6-1, 5-morpholin-4-yl-2-(2-quinolin-2-ylethyl)[1,2,4]triazolo[4,3-a]pyridin-3(2H)-one] |
| 11 nM | – | COc1ccc(C(C)(O)c2cccc3nn(CCc4ccc5ccccc5n4)c(=O)n23)cc1 (stereo not shown) [Compound 7-2, 5-[1-hydroxy-1-(4-methoxyphenyl)ethyl]-2-(2 - quinolin-2-ylethyl)[1,2,4]triazolo[4,3-a]pyridin-3(2H)-one] |
| 7.2 nM | 0.1 to 10 nM | Cn1cc(-c2ccccc2)nc1CCn1nc2cccc(Br)n2c1=O [Compound 11-4, 5-bromo-2-[2-(1-methyl-4-phenyl-1H-imidazol-2-yl)ethyl][1,2,4]triazolo[4,3-a]pyridin-3(2H)-one] |
| 0.41 nM | 0.1 to 10 nM | Cn1cc(-c2ccccc2)nc1CCn1nc2cccc(N3CCOCC3)n2c1=O [Compound 12-1, 2-[2-(1-methyl-4-phenyl-1H-imidazol-2-yl)ethyl]-5-morpholin-4-yl[1,2,4]triazolo[4,3-a]pyridin-3(2H)-one] |
| 9 nM | 0.1 to 10 nM | O=c1n(CCc2ccc3ccccc3n2)nc2cccc(-c3cccnc3)n12 [Compound A-1, 5-pyridin-3-yl-2-(2-quinolin-2-ylethyl)[1,2,4]triazolo[4,3-a]pyridin-3(2H)-one] |
| 2 nM | 0.1 to 10 nM | Cn1cc(-c2ccccc2)nc1CCn1nc2cccc(-c3ccncc3)n2c1=O [Compound B-1, 2-[2-(1-methyl-4-phenyl-1H-imidazol-2-yl)ethyl]-5-pyridin-4-yl[1,2,4]triazolo[4,3-a]pyridin-3(2H)-one] |
